Data from ChEMBL document CHEMBL1137354, “Potent, selective, and orally efficacious antagonists of melanin-concentrating hormone receptor 1” (J Med Chem, 2006).
pIC50: −log10 of the molar value.

Assays:
[1] = target: Melanin-concentrating hormone receptor 1 (Homo sapiens, UniProt Q99705); assay: Antagonist activity against human MCHR1 expressed in CHO cells by Gal4/Elk1-Luc reporter assay; type: functional, cell-based
[2] = Oral bioavailability in rat at 3 mg/kg, iv and 10 mg/kg, po; type: ADME, organism-based; details: in vivo
[3] = Total clearance in rat at 3 mg/kg, iv and 10 mg/kg, po; type: ADME, organism-based; details: in vivo
[4] = Volume of distribution in rat at 3 mg/kg, iv and 10 mg/kg, po; type: ADME, organism-based; details: in vivo, read-out: Vss
[5] = Half life in rat at 3 mg/kg, iv; type: ADME, organism-based; design: dose 3 mg/kg, route intravenous; details: in vivo
Mus musculus [6] = assay: Concentration in DIO AKR/J mouse serum at 10 mg/kg, po; type: ADME, organism-based; design: dose 10 mg/kg, route oral; details: in vivo
[7] = Ratio of drug concentration in brain to serum in DIO AKR/J mouse at 10 mg/kg, po
Mus musculus [8] = assay: Concentration in DIO AKR/J mouse serum at 1 mg/kg, po; type: ADME, organism-based; design: dose 1 mg/kg, route oral; details: in vivo
[9] = Ratio of drug concentration in brain to serum in DIO AKR/J mouse at 3 mg/kg, po
Mus musculus [10] = assay: Reduction in body weight of DIO AKR/J mouse relative to control at 1 mg/kg/day, po after 26 days; type: functional; design: scale not given: the % may be the effect or the level left
Mus musculus [11] = assay: Concentration in DIO AKR/J mouse serum at 3 mg/kg, po; type: ADME, organism-based; design: dose 3 mg/kg, route oral; details: in vivo
[12] = Ratio of drug concentration in brain to serum in DIO AKR/J mouse at 1 mg/kg, po
Mus musculus [13] = assay: Reduction in body weight of DIO AKR/J mouse relative to control at 10 mg/kg/day, po after 26 days; type: functional; design: scale not given: the % may be the effect or the level left
Mus musculus [14] = assay: Concentration in DIO AKR/J mouse brain at 1 mg/kg, po; type: ADME, organism-based; design: dose 1 mg/kg, route oral; details: in vivo
Mus musculus [15] = assay: Concentration in DIO AKR/J mouse brain at 3 mg/kg, po; type: ADME, organism-based; design: dose 3 mg/kg, route oral; details: in vivo
Mus musculus [16] = assay: Reduction in body weight of DIO AKR/J mouse relative to control at 3 mg/kg/day, po after 26 days; type: functional; design: scale not given: the % may be the effect or the level left
Mus musculus [17] = assay: Concentration in DIO AKR/J mouse brain at 10 mg/kg, po; type: ADME, organism-based; design: dose 10 mg/kg, route oral; details: in vivo

Sequence of Melanin-concentrating hormone receptor 1 (Q99705 whole entry, the tested form may be a part): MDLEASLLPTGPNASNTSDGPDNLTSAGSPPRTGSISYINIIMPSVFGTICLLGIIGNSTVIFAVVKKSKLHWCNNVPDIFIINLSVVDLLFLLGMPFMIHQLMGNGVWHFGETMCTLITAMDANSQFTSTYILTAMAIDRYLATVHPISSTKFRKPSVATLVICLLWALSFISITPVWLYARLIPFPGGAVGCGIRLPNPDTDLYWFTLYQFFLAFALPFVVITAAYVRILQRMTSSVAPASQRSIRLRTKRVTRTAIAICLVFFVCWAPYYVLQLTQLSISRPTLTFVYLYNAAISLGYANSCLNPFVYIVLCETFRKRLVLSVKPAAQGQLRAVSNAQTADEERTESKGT

SMILES	pIC50 [1]	also measured
COc1ccc(-c2cc3ncn(-c4ccc5nc(CN6CCOCC6)ccc5c4)c(=O)c3s2)cc1	7.51	
O=c1c2sc(-c3ccc(Cl)cc3)cc2ncn1-c1ccc2nc(CN3CCOCC3)ccc2c1	8.31	
O=c1c2sc(-c3ccc(Cl)cc3)cc2ncn1-c1ccc2nc(CN3CCC(c4ccc(C(F)(F)F)cc4)CC3)ccc2c1	8.21	bioavailability [2]: 18%; clearance [3]: 3.7 mL/min/kg; Vd [4]: 1.1 L/kg; half-life [5]: 510 min
CN(C)CC1COc2cc(-n3cnc4cc(-c5ccc(Cl)cc5)sc4c3=O)ccc2O1 (configuration not stated)	8.11	
O=c1c2sc(-c3ccc(Cl)cc3)cc2ncn1-c1ccc2nc(CN3CCN(CCN4CCOCC4)CC3)ccc2c1	7.72	
CN(C)C[C@@H]1COc2cc(-n3cnc4cc(-c5ccc(Cl)cc5)sc4c3=O)ccc2O1	8.49	
CN1CCN(Cc2ccc3cc(-n4cnc5cc(-c6ccc(Cl)cc6)sc5c4=O)ccc3n2)CC1	8.51	Drug uptake (Mus musculus [6]): 414 ng/mL; Kp [7]: 31; Drug uptake (Mus musculus [8]): 44 ng/mL; Kp [9]: 31; Activity (Mus musculus [10]): 4.8%; Drug uptake (Mus musculus [11]): 178 ng/mL; Kp [12]: 31; Activity (Mus musculus [13]): 16.9%; Drug uptake (Mus musculus [14]): 1421 ng/g; Drug uptake (Mus musculus [15]): 5508 ng/g; bioavailability [2]: 98%; clearance [3]: 39 mL/min/kg; Vd [4]: 19 L/kg; Activity (Mus musculus [16]): 9.4%; half-life [5]: 462 min; Drug uptake (Mus musculus [17]): 13093 ng/g
CN(Cc1ccc2cc(-n3cnc4cc(-c5ccc(Cl)cc5)sc4c3=O)ccc2n1)c1ccccc1	7.06	
O=c1c2sc(-c3ccc(Cl)cc3)cc2ncn1-c1ccc2nc(CN3CCC(CCN4CCCC4)CC3)ccc2c1	8.82	
O=c1c2sc(-c3ccc(Cl)cc3)cc2ncn1-c1ccc2nc(CN3CCC(c4ccc(F)cc4)CC3)ccc2c1	8.51	bioavailability [2]: 30%; clearance [3]: 2.9 mL/min/kg; Vd [4]: 2.3 L/kg; half-life [5]: 960 min
O=c1c2sc(-c3ccc(Cl)cc3)cc2ncn1-c1ccc2nc(CN3CCN(c4ccccc4)CC3)ccc2c1	8.42	
O=c1c2sc(-c3ccc(Cl)cc3)cc2ncn1-c1ccc2nc(CN3CCCC3)ccc2c1	9.00	
O=c1c2sc(-c3ccc(Cl)cc3)cc2ncn1-c1ccc2c(c1)NCC(CN1CCCC1)O2 (configuration not stated)	8.64	
O=c1c2sc(-c3ccccc3)cc2ncn1-c1ccc2nc(CN3CCOCC3)ccc2c1	6.10	
CN(C)CC1CNc2cc(-n3cnc4cc(-c5ccc(Cl)cc5)sc4c3=O)ccc2O1 (configuration not stated)	8.49	bioavailability [2]: 75%; clearance [3]: 88 mL/min/kg; Vd [4]: 27 L/kg; half-life [5]: 480 min
CN(C)CC1CN(S(=O)(=O)c2ccccc2)c2cc(-n3cnc4cc(-c5ccc(Cl)cc5)sc4c3=O)ccc2O1 (configuration not stated)	5.16	
O=c1c2sc(-c3ccc(Cl)cc3)cc2ncn1-c1ccc2ncccc2c1	7.20	
CCN1CCN(Cc2ccc3cc(-n4cnc5cc(-c6ccc(Cl)cc6)sc5c4=O)ccc3n2)CC1	8.21	
CCC(C)c1ccc(-c2cc3ncn(-c4ccc5nc(CN6CCOCC6)ccc5c4)c(=O)c3s2)cc1 (configuration not stated)	6.70	
CN(C)CC1CN(S(C)(=O)=O)c2cc(-n3cnc4cc(-c5ccc(Cl)cc5)sc4c3=O)ccc2O1 (configuration not stated)	5.38	
O=c1c2sc(-c3ccc(Br)cc3)cc2ncn1-c1ccc2nc(CN3CCOCC3)ccc2c1	7.40	

SMILES	pIC50 [1]	also measured
CN1CCN(CC2CNc3cc(-n4cnc5cc(-c6ccc(Cl)cc6)sc5c4=O)ccc3O2)CC1 (configuration not stated)	8.46	
O=c1c2sc(-c3ccccc3Cl)cc2ncn1-c1ccc2nc(CN3CCOCC3)ccc2c1	5.90	
CN(C)Cc1ccc2cc(-n3cnc4cc(-c5ccc(Cl)cc5)sc4c3=O)ccc2n1	9.13	
O=c1c2sc(-c3ccc(Cl)cc3)cc2ncn1-c1ccc2c(c1)OC[C@@H](CN1CCCC1)O2	8.15	
O=c1c2sc(-c3ccc(Cl)cc3)cc2ncn1-c1ccc2nc(CN3CCC(N4CCCC4)CC3)ccc2c1	8.25	
O=c1c2sc(-c3ccc(Cl)cc3)cc2ncn1-c1ccc2nc(CN3CCC(c4ccccc4)CC3)ccc2c1	8.89	bioavailability [2]: 19%; clearance [3]: 11 mL/min/kg; Vd [4]: 4.3 L/kg; half-life [5]: 480 min
CN(C)C[C@H]1COc2cc(-n3cnc4cc(-c5ccc(Cl)cc5)sc4c3=O)ccc2O1	7.60	
N#Cc1ccc(-c2cc3ncn(-c4ccc5nc(CN6CCOCC6)ccc5c4)c(=O)c3s2)cc1	6.32	
O=c1c2sc(-c3ccc(Cl)cc3)cc2ncn1-c1ccc2nc(CN3CCN(CCCN4CCOCC4)CC3)ccc2c1	7.43	
O=c1c2sc(-c3ccc(C(F)(F)F)cc3)cc2ncn1-c1ccc2nc(CN3CCOCC3)ccc2c1	7.44	
O=c1c2sc(-c3ccc(Cl)cc3)cc2ncn1-c1ccc2nc(CO)ccc2c1	8.46	
O=c1c2sc(-c3ccc(F)cc3)cc2ncn1-c1ccc2nc(CN3CCOCC3)ccc2c1	6.30	
O=c1c2sc(-c3cccc(Cl)c3)cc2ncn1-c1ccc2nc(CN3CCOCC3)ccc2c1	5.40	
O=c1c2sc(-c3ccc(Cl)cc3)cc2ncn1-c1ccc2nc(Cn3ccnc3)ccc2c1	8.70	
O=c1c2sc(-c3ccc(Cl)cc3)cc2ncn1-c1ccc2c(c1)OC[C@H](CN1CCCC1)O2	7.62	bioavailability [2]: 65%; clearance [3]: 66 mL/min/kg; Vd [4]: 22 L/kg; half-life [5]: 366 min
O=c1c2sc(-c3ccc(Cl)cc3)cc2ncn1-c1ccc2c(c1)NCC(CN1CC[C@@H](O)C1)O2 (some centres not stated)	8.47	
O=c1c2sc(-c3ccc(Cl)cc3)cc2ncn1-c1ccc2nc(CN3CCCCC3)ccc2c1	9.05	
O=c1c2sc(-c3ccc(Cl)cc3)cc2ncn1-c1ccc2c(c1)NCC(CN1CCOCC1)O2 (configuration not stated)	8.07	
O=c1c2sc(-c3ccc(Cl)cc3)cc2ncn1-c1ccc2c(c1)NCC(CN1CC[C@H](O)C1)O2 (some centres not stated)	8.28	
CC(C)(C)c1ccc(-c2cc3ncn(-c4ccc5nc(CN6CCOCC6)ccc5c4)c(=O)c3s2)cc1	6.30	
